# The supplement of paper PMC10307832
# What was measured:
# Assay in all cases: relative viability (nuclei count vs DMSO), 5 days (fraction); higher = more cells survive
# [1] = compound: COC1=C(C=C(C=C1)C2=CC3=NC=CN3C(=N2)NC4=C(C=CC=N4)C(=O)N)OC [BAY61-3606] + CS(=O)(=O)CCNCc1ccc(-c2ccc3ncnc(Nc4ccc(OCc5cccc(F)c5)c(Cl)c4)c3c2)o1 [Lapatinib] (partner 2 µM)
# In short: (§1)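 Values are medians from duplicate plates. Each reflects relative viability, defined as the nuclei count of treated wells over that of vehicle wells. Lung cancer cell lines in 1536-well plates were pin-tool dosed one day after seeding with one drug alone or with a fixed anchor-drug dose plus five library-drug doses (not always all listed) in √10 steps, then fixed, stained and imaged at 4× after 5 days.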
# [2] = compound: COc1cccc2c1C(=O)c1c(O)c3c(c(O)c1C2=O)C[C@@](O)(C(=O)CO)C[C@@H]3O[C@H]1C[C@H](N)[C@H](O)[C@H](C)O1 [Doxorubicin] + CS(=O)(=O)CCNCc1ccc(-c2ccc3ncnc(Nc4ccc(OCc5cccc(F)c5)c(Cl)c4)c3c2)o1 [Lapatinib] (partner 2 µM)
# In short: as §1
# [3] = compound: COC1=C(C=C(C=C1)C2=CC3=NC=CN3C(=N2)NC4=C(C=CC=N4)C(=O)N)OC [BAY61-3606] + CS(=O)(=O)N1CCN(Cc2cc3nc(-c4cccc5[nH]ncc45)nc(N4CCOCC4)c3s2)CC1 [Pictilisib] (partner 1 µM)
# In short: as §1
# [4] = compound: COc1cccc2c1C(=O)c1c(O)c3c(c(O)c1C2=O)C[C@@](O)(C(=O)CO)C[C@@H]3O[C@H]1C[C@H](N)[C@H](O)[C@H](C)O1 [Doxorubicin] + Cc1nc(NC(=O)N2CCC[C@H]2C(N)=O)sc1-c1ccnc(C(C)(C)C(F)(F)F)c1 [Alpelisib] (partner 2 µM)
# In short: as §1
Cell Line,relative viability ([1]; first compound 0.02 µM),relative viability ([1]; first compound 0.06325 µM),relative viability ([1]; first compound 0.2 µM),relative viability ([1]; first compound 0.6325 µM),relative viability ([1]; first compound 2 µM),relative viability ([2]; first compound 0.001 µM),relative viability ([2]; first compound 0.003162 µM),relative viability ([2]; first compound 0.01 µM),relative viability ([2]; first compound 0.03162 µM),relative viability ([2]; first compound 0.1 µM),relative viability ([3]; first compound 0.02 µM),relative viability ([3]; first compound 0.06325 µM),relative viability ([3]; first compound 0.2 µM),relative viability ([3]; first compound 0.6325 µM),relative viability ([3]; first compound 2 µM),relative viability ([4]; first compound 0.001 µM),relative viability ([4]; first compound 0.003162 µM),relative viability ([4]; first compound 0.01 µM),relative viability ([4]; first compound 0.03162 µM),relative viability ([4]; first compound 0.1 µM)
HCC-78,0.949,0.682,0.82,0.702,0.959,0.752,0.723,0.77,0.673,0.466,0.297,0.226,0.251,0.158,0.167,0.374,0.269,0.548,0.298,0.312
HOP-62,0.918,–,1.05,1.06,1.07,0.811,1.15,1.02,1.1,0.853,0.68,–,0.582,0.783,0.53,0.873,1.26,1.15,0.879,0.934
NCI-H3122,1.03,0.934,0.974,1.07,0.957,1.02,1,1.02,1,0.958,0.621,0.632,0.568,0.59,0.619,0.835,0.776,0.815,0.782,0.768
NCI-H1666,0.668,–,0.523,0.649,0.445,0.699,0.507,0.296,0.25,0.236,0.521,–,0.447,0.375,0.395,0.938,0.814,0.551,0.27,0.284
HARA,0.798,0.643,0.721,0.862,0.735,0.599,0.591,0.893,0.62,0.659,0.444,0.371,0.372,0.39,0.312,0.816,0.845,0.76,0.782,0.812
NCI-H1651,0.979,0.863,0.768,0.826,0.801,0.784,0.729,0.475,0.166,0.129,0.628,0.689,0.623,0.531,0.401,0.902,0.996,0.875,0.424,0.201
NCI-H1395,1.13,1.08,1.34,0.98,0.973,0.921,0.986,0.949,0.803,0.607,0.777,0.524,0.584,0.641,0.559,0.964,0.985,0.98,0.851,0.791
SK-LU-1,0.953,0.81,0.885,0.862,0.532,0.822,1.09,0.669,0.523,0.55,0.628,0.498,0.662,0.515,0.428,1.03,0.995,0.783,0.46,0.322
LXF-289,0.886,0.945,0.95,0.934,0.992,0.865,0.886,0.864,0.891,0.823,0.846,0.83,0.782,0.805,0.84,1.02,1.1,1.07,1.08,1.06
NCI-H1437,0.892,0.915,0.729,0.905,0.683,0.772,0.836,0.61,0.278,0.209,0.532,0.44,0.507,0.442,0.391,1.03,1,0.94,0.611,0.257
HCC-827,0.2,0.2,0.206,0.226,0.217,0.322,0.322,0.182,0.201,0.22,1.03,0.893,1.15,1.09,0.915,1.04,1.15,0.968,1.02,1.05
NCI-H1650,0.862,0.671,0.8,0.849,0.517,0.208,0.612,0.25,0.202,0.14,0.728,0.493,0.68,0.564,0.402,–,–,–,–,–
HCC-15,0.891,0.921,0.851,0.875,0.792,0.661,0.91,0.657,0.563,0.552,0.848,0.65,0.697,0.769,0.665,0.85,0.939,0.633,0.727,0.573
EKVX,0.365,0.184,0.214,0.198,0.193,0.233,0.234,0.228,0.188,0.182,0.415,0.404,0.407,0.411,0.388,0.968,0.971,0.797,0.803,0.861
NCI-H2126,0.83,0.724,0.745,0.794,0.745,0.766,0.796,0.76,0.728,0.773,0.543,0.503,0.492,0.51,0.447,0.743,0.775,0.755,0.711,0.796
LK-2,0.922,0.777,1.01,1.03,0.935,0.879,0.74,0.804,0.724,0.81,0.594,0.423,0.614,0.758,0.532,0.521,0.642,0.947,0.868,0.85
NCI-H1563,0.982,0.899,0.974,1.19,0.809,0.721,0.779,0.661,0.545,0.549,0.621,0.579,0.731,0.654,0.653,0.888,0.824,0.726,0.529,0.51

Cell Line,relative viability ([1]; first compound 0.02 µM),relative viability ([1]; first compound 0.06325 µM),relative viability ([1]; first compound 0.2 µM),relative viability ([1]; first compound 0.6325 µM),relative viability ([1]; first compound 2 µM),relative viability ([2]; first compound 0.001 µM),relative viability ([2]; first compound 0.003162 µM),relative viability ([2]; first compound 0.01 µM),relative viability ([2]; first compound 0.03162 µM),relative viability ([2]; first compound 0.1 µM),relative viability ([3]; first compound 0.02 µM),relative viability ([3]; first compound 0.06325 µM),relative viability ([3]; first compound 0.2 µM),relative viability ([3]; first compound 0.6325 µM),relative viability ([3]; first compound 2 µM),relative viability ([4]; first compound 0.001 µM),relative viability ([4]; first compound 0.003162 µM),relative viability ([4]; first compound 0.01 µM),relative viability ([4]; first compound 0.03162 µM),relative viability ([4]; first compound 0.1 µM)
COR-L23,0.872,1.08,0.826,1.04,0.834,0.955,1.19,0.921,0.241,0.14,0.933,0.871,0.866,0.871,0.449,0.826,0.806,0.866,0.428,0.128
ABC-1,1.34,1.03,1.23,1.05,0.98,1.14,1.54,0.975,1.07,1.1,0.822,0.766,0.787,0.709,0.538,1.04,0.922,1.02,0.504,0.361
SW 1573,1.18,1.01,1.08,1.11,0.858,0.978,1.21,1.15,0.75,0.559,0.476,0.44,0.464,0.514,0.367,0.904,0.731,0.641,0.447,0.428
A549,1.09,1.15,1.05,0.953,0.902,0.922,0.954,0.415,0.0939,0.0714,0.585,0.566,0.532,0.572,0.436,0.799,0.676,0.48,0.132,0.0649
A-427,1.07,1.1,1.05,1.04,1.01,1.1,0.985,1.06,1.04,1.02,0.846,0.709,0.744,0.751,0.646,1.11,1.09,1.09,1.09,1.15
NCI-H1915,1.02,1.02,0.925,0.878,0.919,0.975,0.929,0.99,0.975,0.99,0.999,0.99,0.739,0.884,0.685,0.98,1.05,1.1,1.05,1.12
LOU-NH91,0.765,0.681,0.827,0.735,0.669,–,0.736,0.765,0.579,0.599,0.566,0.544,0.568,0.505,0.472,–,0.707,0.701,0.589,0.398
NCI-H1734,0.991,1.07,1,1.14,0.758,1.07,1.06,0.948,0.53,0.466,0.46,0.459,0.485,0.406,0.324,0.589,0.682,0.662,0.604,0.661
LCLC-97TM1,1.23,–,1.05,1.05,0.864,1.13,0.917,0.847,0.63,0.579,0.272,–,0.28,0.178,0.179,0.228,0.219,0.269,0.24,0.285
HCC-366,1.05,1.09,1.13,1.08,0.955,–,1.09,1,0.168,0.145,0.188,0.138,0.107,0.156,0.116,–,0.348,0.439,0.369,0.367
BEN,0.938,0.694,0.679,0.757,0.787,1.01,0.608,0.697,0.474,0.644,0.71,0.476,0.6,0.655,0.599,1.09,1.04,0.913,0.656,0.886
NCI-H1703,1.55,1.2,0.978,1.02,0.891,0.821,1.14,0.448,0.241,0.21,0.27,0.233,0.241,0.256,0.214,0.335,0.293,0.365,0.214,0.201
LCLC-103H,–,–,–,–,–,–,–,–,–,–,0.646,0.737,0.654,0.542,0.646,0.917,0.993,0.981,1.06,1.08
NCI-H441,–,–,–,–,–,–,–,–,–,–,0.561,0.529,0.493,0.475,0.282,–,0.713,0.684,0.234,0.393
ChaGo-K-1,–,–,–,–,–,–,–,–,–,–,0.897,0.591,0.708,0.506,0.696,–,–,–,–,–
COR-L 105,0.355,0.378,0.418,0.417,0.351,0.372,0.358,0.321,0.287,0.283,0.505,0.385,0.434,0.373,0.346,0.967,1.13,0.928,0.551,0.312
NCI-H1993,0.733,0.846,0.808,0.776,0.746,0.823,0.778,0.748,0.633,0.501,0.871,0.764,0.755,0.868,0.804,0.677,0.627,0.696,0.627,0.619
